From paper PMC12006963, “Application of Deuterium in an M1 Positive Allosteric Modulator Back-Up Program: The Discovery of VU6045422” (ACS Chemical Neuroscience, 2025)

How the values were obtained:
[1] = design: method as in PMID 39660766; conditions: rat hepatic microsomes; cited from earlier work
Adrenergic β2 = Adrenergic β2 (Homo sapiens, UniProt P07550); experiment: Eurofins radioligand binding
Imidazoline I2, Central = experiment: Eurofins radioligand binding; design: species or system Rat
[2] = target: Epidermal Growth Factor (EGF) (Homo sapiens, UniProt P00533); experiment: Eurofins radioligand binding
Purinergic P2X = experiment: Eurofins radioligand binding; design: species or system Rat
Glutamate, Kainate = experiment: Eurofins radioligand binding; design: species or system Rat
Adrenergic α1B = Adrenergic α1B (Homo sapiens, UniProt P35368); experiment: Eurofins radioligand binding
Serotonin (5-HT3) = Serotonin (5-HT3) (Homo sapiens, UniProt P46098); experiment: Eurofins radioligand binding
Interleukin IL-1 R1 = Interleukin IL-1 R1 (Homo sapiens, UniProt P14778); experiment: Eurofins radioligand binding
Serotonin (5-HT2B) = Serotonin (5-HT2B) (Homo sapiens, UniProt P41595); experiment: Eurofins radioligand binding
Melatonin MT1 = Melatonin MT1 (Homo sapiens, UniProt P48039); experiment: Eurofins radioligand binding
Dopamine D4.2 = experiment: Eurofins radioligand binding; design: species or system Human
Sigma σ1 = Sigma σ1 (Homo sapiens, UniProt Q99720); experiment: Eurofins radioligand binding
Potassium Channel [KATP] = Potassium Channel [KATP] (Cricetus cricetus, UniProt Q09427); experiment: Eurofins radioligand binding; design: species or system Hamster
Histamine H3 = Histamine H3 (Homo sapiens, UniProt Q9Y5N1); experiment: Eurofins radioligand binding
Histamine H2 = Histamine H2 (Homo sapiens, UniProt P25021); experiment: Eurofins radioligand binding
[3] = system: 68 GPCRs, ion channels, and transporters; experiment: Eurofins lead profiling screen, whole panel; type: binding; conditions: 10 μM; significant means >50%
[4] = Rat oral dose escalation PK study; type: in vivo; conditions: for AUC(0-t) / Cmax: Sprague-Dawley, plasma, rat, oral
Description: page 9: Brain plasma concentration ratio (Kp) was calculated by dividing brain concentration by plasma concentration for each animal. Unbound brain to unbound plasma concentration ratio (Kp,uu) is calculated using the following formula: Kp,uu = (Brain ng/g x brain fu)/(plasma ng/ml x plasma fu). Pharmacokinetic profiles in rats following oral single escalating doses Single escalating oral dosing in Sprague-Dawley rats was performed at Frontage Laboratories according to their non-GLP Standard Operating Procedure and IACUC protocols. […] At different times, arterial blood was collected from a femoral artery catheter, and compound concentration was determined in plasma by LC-MS/MS following their non-GLP protocol. PK parameters were determined using Phoenix WinNonlin software (version 6.3). In-vitro determination of blood-brain barrier penetration potential Blood-brain barrier penetration was determined using MDR1-MDCK cell monolayers by Absorption Systems, following their protocol. In short, compounds were incubated at […] final concentration on one side of the cell monolayer for 2 hours. Compounds concentration on either side of the monolayer was determined by LC-MS/MS and apparent permeability and efflux ratio were determined as described in Wang, Q. et al.1 Behavioral Manifestations of Seizure Activity To evaluate induction of behavioral manifestation of seizure activity, C57Bl/6 mice received administration of vehicle or 100 mg/kg M1 PAM 5. Compound was formulated in 30% Captisol (pH 7.0) at a concentration of 10 mg/mL and injected i.p. at 10 ml/kg (n = 4). Animals were monitored continuously and scored for behavioral manifestations of seizure activity at 5, 15, 30 min, and 1 h. Behavioral manifestations of seizures were scored using a modified Racine scoring system. Briefly, a score of 0 represents no behavior alterations; score 1, immobility, mouth and facial movements, or facial clonus; score 2, head nodding, tail extension; score 3, forelimb clonus, repetitive movements; score 4, rearing and tonic clonic seizure; and score 5, continuous rearing and falling, severe generalized tonic clonic seizure. Novel Object Recognition Task S9

[5] = target: Nicotinic Acetylcholine α3β4 (Homo sapiens, UniProt P30926+P32297); experiment: Eurofins radioligand binding
Opiate κ (OP2, KOP) = Opiate κ (OP2, KOP) (Homo sapiens, UniProt P41145); experiment: Eurofins radioligand binding
Androgen (Testosterone) = Androgen (Testosterone) (Homo sapiens, UniProt P10275); experiment: Eurofins radioligand binding
[6] = target: Nicotinic Acetylcholine α1, Bungarotoxin (Homo sapiens, UniProt P02708+P07510+Q07001); experiment: Eurofins radioligand binding; conditions: read-out: % Inhibition at 10 µM
Glutamate, NMDA, Agonism = experiment: Eurofins radioligand binding; design: species or system Rat
Endothelin ETB = Endothelin ETB (Homo sapiens, UniProt P24530); experiment: Eurofins radioligand binding
Estrogen ERα = Estrogen ERα (Homo sapiens, UniProt P03372); experiment: Eurofins radioligand binding
Tachykinin NK1 = Tachykinin NK1 (Homo sapiens, UniProt P25103); experiment: Eurofins radioligand binding
Glucocorticoid = Glucocorticoid (Homo sapiens, UniProt P04150); experiment: Eurofins radioligand binding
Cannabinoid CB1 = Cannabinoid CB1 (Homo sapiens, UniProt P21554); experiment: Eurofins radioligand binding
Sodium Channel, Site 2 = experiment: Eurofins radioligand binding; design: species or system Rat
Thyroid Hormone = experiment: Eurofins radioligand binding; design: species or system Rat
Neuropeptide Y Y1 = Neuropeptide Y Y1 (Homo sapiens, UniProt P25929); experiment: Eurofins radioligand binding
Sequence of Neuropeptide Y Y1 (P25929 whole entry): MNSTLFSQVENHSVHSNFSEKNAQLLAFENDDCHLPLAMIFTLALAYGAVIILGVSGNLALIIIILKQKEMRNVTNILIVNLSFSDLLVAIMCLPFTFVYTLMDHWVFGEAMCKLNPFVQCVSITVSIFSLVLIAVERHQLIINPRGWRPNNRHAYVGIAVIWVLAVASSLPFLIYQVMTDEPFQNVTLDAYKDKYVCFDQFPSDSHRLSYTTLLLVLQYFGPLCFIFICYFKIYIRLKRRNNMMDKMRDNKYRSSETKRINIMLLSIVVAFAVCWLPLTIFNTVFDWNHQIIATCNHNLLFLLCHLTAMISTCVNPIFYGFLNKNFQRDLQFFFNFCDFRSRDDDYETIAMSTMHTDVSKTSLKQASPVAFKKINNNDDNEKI

Sequence of Adrenergic β2 (P07550 whole entry): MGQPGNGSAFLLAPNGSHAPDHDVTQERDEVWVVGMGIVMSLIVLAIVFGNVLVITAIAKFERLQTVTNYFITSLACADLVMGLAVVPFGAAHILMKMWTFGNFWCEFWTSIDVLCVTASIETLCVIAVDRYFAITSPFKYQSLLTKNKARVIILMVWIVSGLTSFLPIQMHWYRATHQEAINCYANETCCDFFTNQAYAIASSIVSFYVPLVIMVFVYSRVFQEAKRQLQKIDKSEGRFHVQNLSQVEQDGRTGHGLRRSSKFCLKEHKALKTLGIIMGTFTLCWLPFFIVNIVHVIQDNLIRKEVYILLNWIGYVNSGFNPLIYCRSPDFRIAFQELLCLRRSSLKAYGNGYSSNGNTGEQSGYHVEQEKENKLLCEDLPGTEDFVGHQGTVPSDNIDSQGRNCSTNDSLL
Sequence of Cannabinoid CB1 (P21554 whole entry): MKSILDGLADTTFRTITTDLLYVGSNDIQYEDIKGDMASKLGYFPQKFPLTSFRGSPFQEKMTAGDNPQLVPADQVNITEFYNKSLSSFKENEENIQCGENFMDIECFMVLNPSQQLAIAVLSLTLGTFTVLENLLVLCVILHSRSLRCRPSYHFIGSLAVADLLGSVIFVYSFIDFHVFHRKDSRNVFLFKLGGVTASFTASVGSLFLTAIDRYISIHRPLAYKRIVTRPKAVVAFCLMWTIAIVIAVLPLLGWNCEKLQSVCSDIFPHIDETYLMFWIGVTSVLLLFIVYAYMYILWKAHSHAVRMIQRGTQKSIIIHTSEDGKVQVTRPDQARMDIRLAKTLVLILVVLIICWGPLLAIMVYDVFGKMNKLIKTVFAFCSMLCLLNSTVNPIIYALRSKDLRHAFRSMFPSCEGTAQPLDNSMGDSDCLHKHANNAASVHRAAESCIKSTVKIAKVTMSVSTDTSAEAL
Sequence of Opiate κ (OP2, KOP) (P41145 whole entry): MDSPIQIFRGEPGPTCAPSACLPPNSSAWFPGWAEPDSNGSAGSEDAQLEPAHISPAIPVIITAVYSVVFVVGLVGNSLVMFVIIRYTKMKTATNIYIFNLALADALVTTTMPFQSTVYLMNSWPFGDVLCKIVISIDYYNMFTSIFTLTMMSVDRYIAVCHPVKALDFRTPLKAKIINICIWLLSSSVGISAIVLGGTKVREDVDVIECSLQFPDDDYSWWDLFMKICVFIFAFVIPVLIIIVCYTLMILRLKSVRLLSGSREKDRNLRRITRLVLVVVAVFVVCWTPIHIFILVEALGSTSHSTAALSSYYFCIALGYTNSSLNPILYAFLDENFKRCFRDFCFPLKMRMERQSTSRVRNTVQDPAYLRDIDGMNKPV
Sequence of Nicotinic Acetylcholine α1, Bungarotoxin (P11230 24-501): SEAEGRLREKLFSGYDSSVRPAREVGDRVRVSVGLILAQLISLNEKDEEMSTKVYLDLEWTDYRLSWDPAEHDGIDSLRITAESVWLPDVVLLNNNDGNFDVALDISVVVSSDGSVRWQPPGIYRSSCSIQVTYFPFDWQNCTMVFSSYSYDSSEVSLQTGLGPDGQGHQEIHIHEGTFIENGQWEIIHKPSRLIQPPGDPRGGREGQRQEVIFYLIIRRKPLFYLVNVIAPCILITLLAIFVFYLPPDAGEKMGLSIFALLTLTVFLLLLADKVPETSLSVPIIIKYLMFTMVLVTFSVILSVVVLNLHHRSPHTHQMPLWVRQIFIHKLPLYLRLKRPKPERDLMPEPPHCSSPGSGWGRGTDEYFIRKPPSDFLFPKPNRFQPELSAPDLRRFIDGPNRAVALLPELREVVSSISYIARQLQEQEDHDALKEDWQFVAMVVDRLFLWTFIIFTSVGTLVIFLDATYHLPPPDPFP
Sequence of Nicotinic Acetylcholine α1, Bungarotoxin (Q07001 22-517): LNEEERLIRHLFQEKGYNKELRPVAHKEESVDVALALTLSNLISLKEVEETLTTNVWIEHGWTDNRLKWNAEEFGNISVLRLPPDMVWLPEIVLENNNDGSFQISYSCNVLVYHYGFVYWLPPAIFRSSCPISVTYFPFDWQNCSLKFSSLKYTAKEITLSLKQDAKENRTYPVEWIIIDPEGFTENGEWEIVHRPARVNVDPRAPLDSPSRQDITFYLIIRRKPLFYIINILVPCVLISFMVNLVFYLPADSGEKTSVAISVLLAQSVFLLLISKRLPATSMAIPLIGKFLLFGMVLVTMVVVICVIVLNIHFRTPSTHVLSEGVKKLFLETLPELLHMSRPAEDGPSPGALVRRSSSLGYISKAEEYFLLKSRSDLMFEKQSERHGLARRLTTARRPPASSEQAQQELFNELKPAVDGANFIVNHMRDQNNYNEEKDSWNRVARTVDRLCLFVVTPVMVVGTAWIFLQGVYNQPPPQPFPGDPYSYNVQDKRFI
Sequence of Nicotinic Acetylcholine α1, Bungarotoxin (P02708 21-457): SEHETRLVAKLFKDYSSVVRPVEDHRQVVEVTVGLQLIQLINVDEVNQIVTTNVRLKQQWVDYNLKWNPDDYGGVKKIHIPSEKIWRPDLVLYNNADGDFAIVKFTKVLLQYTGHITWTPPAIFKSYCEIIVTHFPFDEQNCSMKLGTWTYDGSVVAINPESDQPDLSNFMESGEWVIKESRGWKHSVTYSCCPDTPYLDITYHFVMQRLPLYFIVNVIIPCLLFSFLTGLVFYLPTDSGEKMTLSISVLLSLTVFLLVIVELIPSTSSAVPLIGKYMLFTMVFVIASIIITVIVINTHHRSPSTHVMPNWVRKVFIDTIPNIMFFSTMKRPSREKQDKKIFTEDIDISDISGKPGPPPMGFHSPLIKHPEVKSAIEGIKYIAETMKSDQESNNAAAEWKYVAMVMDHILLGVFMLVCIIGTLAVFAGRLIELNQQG
Sequence of Nicotinic Acetylcholine α1, Bungarotoxin (P07510 23-517): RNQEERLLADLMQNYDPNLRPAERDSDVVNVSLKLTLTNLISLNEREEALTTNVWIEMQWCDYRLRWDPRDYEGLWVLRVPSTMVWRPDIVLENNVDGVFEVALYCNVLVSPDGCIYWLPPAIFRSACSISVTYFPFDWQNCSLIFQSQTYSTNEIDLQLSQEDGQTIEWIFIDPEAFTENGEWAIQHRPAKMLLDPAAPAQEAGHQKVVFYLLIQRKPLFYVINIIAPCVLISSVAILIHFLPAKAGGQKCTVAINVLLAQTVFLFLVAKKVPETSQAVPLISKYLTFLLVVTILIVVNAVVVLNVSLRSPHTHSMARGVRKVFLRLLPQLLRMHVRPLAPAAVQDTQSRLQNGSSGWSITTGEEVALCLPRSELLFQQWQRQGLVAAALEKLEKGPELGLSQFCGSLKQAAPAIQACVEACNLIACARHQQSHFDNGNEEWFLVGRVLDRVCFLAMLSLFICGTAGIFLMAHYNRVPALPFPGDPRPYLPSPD
Sequence of Androgen (Testosterone) (P10275 whole entry): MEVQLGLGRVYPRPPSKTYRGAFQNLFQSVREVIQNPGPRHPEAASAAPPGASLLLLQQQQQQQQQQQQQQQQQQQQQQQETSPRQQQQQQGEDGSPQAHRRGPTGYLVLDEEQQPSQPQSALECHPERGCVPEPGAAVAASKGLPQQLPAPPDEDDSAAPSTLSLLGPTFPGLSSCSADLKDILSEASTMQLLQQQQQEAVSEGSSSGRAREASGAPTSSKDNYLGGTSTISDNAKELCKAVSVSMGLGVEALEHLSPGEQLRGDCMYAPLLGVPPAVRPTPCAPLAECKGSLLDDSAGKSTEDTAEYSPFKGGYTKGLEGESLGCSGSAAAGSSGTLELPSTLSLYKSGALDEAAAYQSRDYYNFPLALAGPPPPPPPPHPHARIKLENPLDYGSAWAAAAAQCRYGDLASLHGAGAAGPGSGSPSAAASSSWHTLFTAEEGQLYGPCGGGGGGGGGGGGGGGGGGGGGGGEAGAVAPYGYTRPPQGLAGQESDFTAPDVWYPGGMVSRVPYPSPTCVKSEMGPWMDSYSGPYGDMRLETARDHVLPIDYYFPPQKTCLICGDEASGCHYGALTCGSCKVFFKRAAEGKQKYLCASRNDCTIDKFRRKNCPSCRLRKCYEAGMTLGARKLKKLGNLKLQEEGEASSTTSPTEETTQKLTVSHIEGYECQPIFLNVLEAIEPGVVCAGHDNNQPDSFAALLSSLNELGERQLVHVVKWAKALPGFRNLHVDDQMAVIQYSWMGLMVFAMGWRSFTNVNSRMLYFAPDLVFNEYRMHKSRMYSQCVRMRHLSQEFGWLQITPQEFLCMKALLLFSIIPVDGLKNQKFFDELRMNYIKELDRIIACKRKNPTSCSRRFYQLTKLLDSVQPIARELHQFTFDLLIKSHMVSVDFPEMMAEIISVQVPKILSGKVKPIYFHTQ
Sequence of Serotonin (5-HT2B) (P41595 whole entry): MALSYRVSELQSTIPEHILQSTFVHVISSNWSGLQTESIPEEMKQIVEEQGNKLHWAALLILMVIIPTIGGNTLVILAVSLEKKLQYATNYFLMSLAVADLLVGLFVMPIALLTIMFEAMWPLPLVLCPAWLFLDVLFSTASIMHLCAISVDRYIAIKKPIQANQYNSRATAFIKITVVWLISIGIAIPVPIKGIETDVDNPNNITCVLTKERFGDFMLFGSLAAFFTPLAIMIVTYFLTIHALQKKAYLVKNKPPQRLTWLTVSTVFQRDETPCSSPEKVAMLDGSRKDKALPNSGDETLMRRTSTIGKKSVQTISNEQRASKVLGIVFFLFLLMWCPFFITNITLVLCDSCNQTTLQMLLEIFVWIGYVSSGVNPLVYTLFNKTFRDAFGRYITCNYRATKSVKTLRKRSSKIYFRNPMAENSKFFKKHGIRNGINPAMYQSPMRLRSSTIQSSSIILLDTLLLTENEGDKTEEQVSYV

SMILES: Cn1cc2c(-c3cc(F)c(CN4Cc5ncccc5C4=O)c(F)c3)cccc2n1 [compound 1]
- rat CLhep [1]: 5.7 mL/min/kg

SMILES: [2H]C1([2H])c2ncccc2C(=O)N1Cc1c(F)cc(-c2cccc3nn(C([2H])([2H])[2H])cc23)cc1F [compound 5]
- inhibition at 10 µM (Adrenergic β2): -1%
- % Inhibition at 10 µM (Imidazoline I2, Central): 59%
- inhibition at 10 µM [2]: 3%
- % Inhibition at 10 µM (Purinergic P2X): 4%
- % Inhibition at 10 µM (Glutamate, Kainate): 13%
- inhibition at 10 µM (Adrenergic α1B): 10%
- inhibition at 10 µM (Serotonin (5-HT3)): -9%
- inhibition at 10 µM (Interleukin IL-1 R1): 8%
- inhibition at 10 µM (Serotonin (5-HT2B)): 10%
- inhibition at 10 µM (Melatonin MT1): 5%
- % Inhibition at 10 µM (Dopamine D4.2): 13%
- inhibition at 10 µM (Sigma σ1): 11%
- inhibition at 10 µM (Potassium Channel [KATP]): 24%
- inhibition at 10 µM (Histamine H3): 5%
- inhibition at 10 µM (Histamine H2): 2%
- activity in Eurofins lead profiling screen, whole panel [3]: no significant activity
- AUC(0-t) ([4]; 3 mg/kg): 8390 ng·h/mL
- Cmax ([4]; 3 mg/kg): 1250 ng/mL
- AUC(0-t) ([4]; 10 mg/kg): 23900 ng·h/mL
- Cmax ([4]; 10 mg/kg): 3380 ng/mL
- AUC(0-t) ([4]; 30 mg/kg): 55600 ng·h/mL
- Cmax ([4]; 30 mg/kg): 6020 ng/mL
- AUC(0-t) ([4]; 100 mg/kg): 87800 ng·h/mL
- Cmax ([4]; 100 mg/kg): 7850 ng/mL
- cholinergic signs or adverse events ([4]; rat oral dose escalation 3-100 mg/kg): no cholinergic signs or adverse events were noted
- inhibition at 10 µM [5]: -7%
- inhibition at 10 µM (Opiate κ (OP2, KOP)): 9%
- inhibition at 10 µM (Androgen (Testosterone)): 0%
- inhibition at 10 µM [6]: 8%
- % Inhibition at 10 µM (Glutamate, NMDA, Agonism): 3%
- inhibition at 10 µM (Endothelin ETB): 1%
- inhibition at 10 µM (Estrogen ERα): 10%
- inhibition at 10 µM (Tachykinin NK1): 4%
- inhibition at 10 µM (Glucocorticoid): 13%
- inhibition at 10 µM (Cannabinoid CB1): -3%
- % Inhibition at 10 µM (Sodium Channel, Site 2): 14%
- % Inhibition at 10 µM (Thyroid Hormone): 0%
- inhibition at 10 µM (Neuropeptide Y Y1): -13%
